From ChEMBL document CHEMBL5344474, “Molecular editing of NSC-666719 enabling discovery of benzodithiazinedioxide-guanidines as anticancer agents” (RSC Med Chem, 2024)

Experiments:
MDA-MB-231 = assay: Antiproliferative activity against human MDA-MB-231 cells incubated for 72 hrs by MTT assay; settings: MDA-MB-231, 72 h
[1] = Selectivity index, ratio of IC50 for HEK293 cells to IC50 for human MDA-MB-231 cells; settings: HEK293 cells versus MDA-MB-231 cells
[2] = Selectivity index, ratio of IC50 for HEK293 cells to IC50 for human HCT-116 cells; settings: HEK293 cells versus HCT-116 cells
MCF7 = assay: Antiproliferative activity against human MCF7 cells incubated for 72 hrs by MTT assay; settings: MCF7, 72 h
[3] = Selectivity index, ratio of IC50 for HEK293 cells to IC50 for human MCF7 cells; settings: HEK293 cells versus MCF7 cells
[4] = Cytotoxicity against HEK293 cells incubated for 72 hrs by MTT assay; settings: human
SCC-9 = assay: Antiproliferative activity against human SCC-9 cells incubated for 72 hrs by MTT assay; settings: SCC-9, 72 h
HCT-116 = assay: Antiproliferative activity against human HCT-116 cells incubated for 72 hrs by MTT assay; settings: HCT-116, 72 h

Structure (SMILES)	IC50 (MDA-MB-231) [µM]	IC50 (MCF7) [µM]	IC50 (HCT-116) [µM]	selectivity ratio [1]	selectivity ratio [2]	selectivity ratio [3]	IC50 at 72 h [4] [µM]	IC50 (SCC-9) [µM]
Cc1cc2c(cc1Cl)SC(/N=C(/N)Nc1ccnc3ccccc13)=NS2(=O)=O	5.7	3.1		> 65	> 65	> 65		
Cc1cc(S(=O)(=O)Nc2nc(Nc3ccc(Cl)cc3)n[nH]2)c(S)cc1Cl	8.4	7.4						
Cc1cc(S(=O)(=O)Nc2nc(Nc3cccc4ccccc34)n[nH]2)c(S)cc1Cl	8.6	7.5		> 65	> 65	> 65		
COc1cc2nccc(N/C(N)=N\C3=NS(=O)(=O)c4cc(C)c(Cl)cc4S3)c2cc1OC	6.1	3.5		> 65	> 65	> 65		
Cc1cc(S(=O)(=O)Nc2nc(Nc3ccc4cnccc4c3)n[nH]2)c(S)cc1Cl	8.2	7.6		> 65	> 65	> 65		
Cc1cc(S(=O)(=O)Nc2nc(Nc3cccc4ncccc34)n[nH]2)c(S)cc1Cl	8.6	7.2		> 65	> 65	> 65		
COc1ccc(Nc2n[nH]c(NS(=O)(=O)c3cc(C)c(Cl)cc3S)n2)cc1	8.5	7.8		> 65	> 65	> 65		
COc1cc2nccc(Nc3n[nH]c(NS(=O)(=O)c4cc(C)c(Cl)cc4S)n3)c2cc1OC	9.2	8.4		> 65	> 65	> 65		
Cc1cc2c(cc1Cl)SC(/N=C(/N)Nc1ccc3c(ccc(=O)n3C)c1)=NS2(=O)=O	5.8	4		> 65	> 65	> 65		
COc1ccc(Nc2n[nH]c(NS(=O)(=O)c3cc(C)c(Cl)cc3S)n2)c(OC)c1OC	7.7	6.5		> 65	> 65	> 65		
Cc1cc(S(=O)(=O)Nc2nc(Nc3cccc4cccnc34)n[nH]2)c(S)cc1Cl	8.8	8.2		> 65	> 65	> 65		
Cc1cc(S(=O)(=O)Nc2nc(Nc3ccc4ncccc4c3)n[nH]2)c(S)cc1Cl	8.2	7.1		> 65	> 65	> 65		
Cc1cc2c(cc1Cl)SC(/N=C(/N)Nc1ccc(Cl)cc1)=NS2(=O)=O	6.6	5.5		> 65	> 65	> 65		
Cc1cc2c(cc1Cl)SC(/N=C(/N)Nc1ccc3cnccc3c1)=NS2(=O)=O	7.2	5.4		> 65	> 65	> 65		
Cc1cc(S(=O)(=O)Nc2nc(Nc3cnc4ccccc4c3)n[nH]2)c(S)cc1Cl	8.6	7.8		> 65	> 65	> 65		
Cc1cc2c(cc1Cl)SC(/N=C(/N)Nc1ccc3ccccc3c1)=NS2(=O)=O	5.8	3.5		> 65	> 65	> 65		
Cc1cc(S(=O)(=O)Nc2nnc(Nc3ccccc3)[nH]2)c(S)cc1Cl	7	6.3		> 65	> 65	> 65		
Cc1cc(S(=O)(=O)Nc2nc(Nc3ccc4cc(O)ccc4c3)n[nH]2)c(S)cc1Cl	8.6	7.5		> 65	> 65	> 65		
Cc1cc(S(=O)(=O)Nc2nc(Nc3cccc4cnccc34)n[nH]2)c(S)cc1Cl	8.7	7.4		> 65	> 65	> 65		
COc1cccc2c(O)ccc(N/C(N)=N\C3=NS(=O)(=O)c4cc(C)c(Cl)cc4S3)c12	6.3	3.2		> 65	> 65	> 65		
Cc1cc2c(cc1Cl)SC(/N=C(/N)Nc1ccc3ncccc3c1)=NS2(=O)=O	5.8	3.8		> 65	> 65	> 65		
COc1ccc2ccccc2c1Nc1n[nH]c(NS(=O)(=O)c2cc(C)c(Cl)cc2S)n1	8.5	7.7		> 65	> 65	> 65		

Second part, led by results:

IC50 (MDA-MB-231) [µM]	IC50 (MCF7) [µM]	IC50 (HCT-116) [µM]	Structure (SMILES)	selectivity ratio [1]	selectivity ratio [2]	selectivity ratio [3]	IC50 at 72 h [4] [µM]	IC50 (SCC-9) [µM]
2.4	1.1	4.4	Cc1cc2c(cc1Cl)SC(/N=C(/N)Nc1ccc(N3CCOCC3)cc1)=NS2(=O)=O	> 65	> 65	> 65	70.1	1.2
5.6	3.6		Cc1cc2c(cc1Cl)SC(/N=C(/N)Nc1cccc3cccnc13)=NS2(=O)=O	> 65	> 65	> 65		
4.1	2.4		COc1cc(N/C(N)=N\C2=NS(=O)(=O)c3cc(C)c(Cl)cc3S2)cc(OC)c1OC	> 65	> 65	> 65		
2.5	1	4	Cc1cc2c(cc1Cl)SC(/N=C(/N)Nc1cnc3ccccn3c1=O)=NS2(=O)=O	> 65	> 65	> 65	66.5	0.9
5.3	3		Cc1cc2c(cc1Cl)SC(/N=C(/N)Nc1cncc3ccccc13)=NS2(=O)=O	> 65	> 65	> 65		
5.5	4.4	4.9	Cc1cc(S(=O)(=O)Nc2nc(Nc3ccc4ccccc4c3)n[nH]2)c(S)cc1Cl					4
3.9	3.1		Cc1cc(S(=O)(=O)Nc2nc(Nc3ccc(Br)cc3)n[nH]2)c(S)cc1Cl	> 65	> 65	> 65		
4.1	2.3		Cc1cc2c(cc1Cl)SC(/N=C(/N)Nc1cnc3ccccc3c1)=NS2(=O)=O	> 65	> 65	> 65		
4	2.5		COc1nc(N/C(N)=N\C2=NS(=O)(=O)c3cc(C)c(Cl)cc3S2)c2ccn(C)c2n1	> 65	> 65	> 65		
4.4	3.2		Cc1cc2c(cc1Cl)SC(/N=C(/N)Nc1ccc3cc(O)ccc3c1)=NS2(=O)=O	> 65	> 65	> 65		
5.2	2.9		CC(=O)c1cn(C)c2ccc(N/C(N)=N\C3=NS(=O)(=O)c4cc(C)c(Cl)cc4S3)cc12	> 65	> 65	> 65		
3.8	2.3		Cc1cc2c(cc1Cl)SC(/N=C(/N)Nc1ccc3ccccc3n1)=NS2(=O)=O	> 65	> 65	> 65		
4	2.4		Cc1cc2c(cc1Cl)SC(/N=C(/N)NC(=O)c1ccc3ccccc3c1)=NS2(=O)=O	> 65	> 65	> 65		
4.8	4		Cc1cc(S(=O)(=O)Nc2nc(Nc3ccnc4cc(Cl)ccc34)n[nH]2)c(S)cc1Cl	> 65	> 65	> 65		
2.6	1.8	3.8	Cc1cc(S(=O)(=O)Nc2nc(Nc3cncc4ccccc34)n[nH]2)c(S)cc1Cl	> 65	> 65	> 65		2.1
2.6	1.3	3.2	Cc1cc2c(cc1Cl)SC(/N=C(/N)Nc1cccc3cnccc13)=NS2(=O)=O	> 65	> 65	> 65	72.2	1.2
4.3	3		COc1ccc2ccccc2c1N/C(N)=N\C1=NS(=O)(=O)c2cc(C)c(Cl)cc2S1	> 65	> 65	> 65		
5.4	3.6		Cc1cc2c(cc1Cl)SC(/N=C(/N)Nc1cccc3ncccc13)=NS2(=O)=O	> 65	> 65	> 65		
4.1	2.5		Cc1cc2c(cc1Cl)SC(/N=C(/N)Nc1ccc3nccnc3c1)=NS2(=O)=O	> 65	> 65	> 65		
5.4	3.3		COc1ccc(N/C(N)=N\C2=NS(=O)(=O)c3cc(C)c(Cl)cc3S2)cc1	> 65	> 65	> 65		
3.2	2.8	4.1	Cc1cc(S(=O)(=O)Nc2nc(NC(=O)c3ccc4ccccc4c3)n[nH]2)c(S)cc1Cl	> 65	> 65	> 65		2.6
